Experiments:
sensory neurons = test: Ex vivo model of sensory neurons in culture (neurotoxicity); assay type: cell-based
T24 cells = test: Methylene blue cell growth assay T24; assay type: cell-based; details: Homo sapiens, T-24, read-out: cell growth-inhibitory IC50
Method: FIGS. 31A & 31B. Treatment with APE1/Ref-1 inhibitors potently blocks bladder cancer cell proliferation and activated Caspase 3/7. […] The IC50 values for FIG. 31A were determined using the methylene blue assay, n=4. […] T24 and UC3 cells were treated with APX2009 and APX2014 at the IC50 and IC90 and monitored over time for activation of capsase 3/7 by an increase in red fluorescence. Time course graphs are shown in FIG. 31B and representative images at 48 hr are shown in FIG. 32A (described more fully below), n=3-4.
FIGS. 36A-36H. […] In cytokine-induced T24 and UC3 cells NFκB-driven luciferase (FIG. 36A), STAT3-driven luciferase (FIG. 36B), and AP-1-driven luciferase (FIG. 36C) were quantified and normalized via Renilla following treatment with the corresponding cell growth-inhibitory IC50 concentrations. T24 cells were treated with APX2009 (8.5 μM) and APX2014 (6.5 μM), and UC3 cells were treated with APX2009 (6.1 μM) and APX2014 (4.6 μM) for 24 h. (*-p<0.05 APX treated vs vehicle, n=4). […] In the panels of FIGS. 36F & 36G, co-expression of survivin and APE1/Ref-1 was analyzed in superficial (FIG. 36F) and invasive human bladder tumors (FIG. 36G) in patients, and found nearly universal overlap of positivity in both in human samples. This was also true in cisplatin-refractory patients from the tissue microarray specimens (FIG. 36H). […]

STAT3 = test: STAT3-driven luciferase reporter; assay type: cell-based, human; details: T24 and UC3 cells induced with IL-6, IC50 concentration, 24 h
Method: FIGS. 36A-36H. […] In cytokine-induced T24 and UC3 cells NFκB-driven luciferase (FIG. 36A), STAT3-driven luciferase (FIG. 36B), and AP-1-driven luciferase (FIG. 36C) were quantified and normalized via Renilla following treatment with the corresponding cell growth-inhibitory IC50 concentrations. T24 cells were treated with APX2009 (8.5 μM) and APX2014 (6.5 μM), and UC3 cells were treated with APX2009 (6.1 μM) and APX2014 (4.6 μM) for 24 h. (*-p<0.05 APX treated vs vehicle, n=4). […] In the panels of FIGS. 36F & 36G, co-expression of survivin and APE1/Ref-1 was analyzed in superficial (FIG. 36F) and invasive human bladder tumors (FIG. 36G) in patients, and found nearly universal overlap of positivity in both in human samples. This was also true in cisplatin-refractory patients from the tissue microarray specimens (FIG. 36H).
The transcriptional activity of NFκB, STAT3, and AP-1 is under redox control by APE1/Ref-1. Therefore, NFκB, STAT3, or AP-1 transcriptional activity was quantified following treatment with APE1/Ref-1 redox inhibitors (FIGS. 36A-36C).

[1] = system: subretinal neovascularization (SNV) in vldlr-/- retina; test: SNV in vldlr-/- knockout mice assay; assay type: in vivo; details: single intravitreal injection, one week after treatment
Method: SNV in vldlr−/− knockout mice assay. […] Experiments were carried out in very-low-density lipoprotein receptor (vldr) knockout mice to determine the effect of APX3330 on inhibition of SNV development in the vldlr−/− mutant. Each animal received a single intravitreal injection of 1 μl volume of BSS as a vehicle control and the fellow eye received 1 μl of […] APX3330. The final concentration of APX3330 was equivalent to approximately 20 μM in the retina. Quantitative measurement of SNV was carried out one week after the treatment in the whole mount retina after lectin-FITC staining. […] The apparent increase of SNV after antibody injection could be due to foreign protein triggered immune response which has been reported before (Tator et al., 2008). APX3330 reduced the number of SNV at a statistically significant level (p<0.01 in paired t-test). […] The Ape1/Ref-1 inhibitor offers a new approach to control angiogenesis for advanced macular degeneration (AMD) treatment.

multiple myeloma cells = test: MTS assay of multiple myeloma cells, combinations (CalcuSyn); assay type: cell-based
Method: APX3330 in combination with chemotherapeutic Melphalan. […] Synergistic plots made using CalcuSyn software. APX3330 was either given alone or in combination with melphalan. As an indicator of DNA double stranded breaks (DSBs), the phosphorylation of histone H2AX at Ser^139 was measured with a phosphorylation-specific H2AX antibody from Upstate Cell Signaling Solutions (Waltham, Md.). Cells were treated with melphalan alone or melphalan plus APX3330. After drug treatment, exponentially growing cells were harvested, washed in cold PBS, and lysed in about 100 μL RIPA assay buffer as described above. Protein was quantified and electrophoresed in SDS gel-loading buffer on a 12% SDS-polyacrylamide gel. Mouse monoclonal anti-phosphohistone H2AX (about 1:1000) or anti-actin antibody (about 1:1000; as a loading control, LabVision Corp., NeoMarkers, Fremont, Calif.) was used to probe for protein levels as described previously. Bands were detected using a chemiluminescence kit from Roche Applied Biosciences (Indianapolis, Ind.). The bands were visualized using Bio-Rad Chemidoc XRS (Hercules, Calif.) and quantitated using Chemidoc software, Quantity One 4.6.1. […]
APX3330 in combination with Methoxyamine-multiple myeloma cells. […] Data was calculated using the CalcuSyn software which is based on the Chou-Talalay algorithm (Chou-Talalay; Advances in Enzyme Regulation 22, 27-55). […]

[2] = system: retinal vascular endothelial cells (RVEC); test: MTS proliferation assay of retinal endothelial cells; assay type: cell-based, mouse
Method: Inhibition of endothelial cell proliferation. […] Young adult mouse retinal tissues were dissected out and digested. Cells were plated in 24 well plates and grown to confluence, then seeded to 96 well plates for assay. Three days after seeding, the total number of cells was assayed by MTS measurement (Promega). The proliferation rate was calculated according to manufacturer's instructions. Proliferations of RECs from different groups were compared for statistical significance. APX3330 (RN3-3) blocked REC proliferation indicative of anti-blood vessel formation effects. (FIG. 10)
APX3330 10-100 μM decreased cell proliferation of retinal vascular endothelial cells (RVEC) (FIG. 11). In basal media, APX3330 inhibited REVC cell proliferation at all 4 concentrations tested, 10 μM-57%, 25 μM-93% (p<0.01).

endothelial cells = test: In vitro tube formation assay; assay type: cell-based
Text: In vitro tube formation assay.

SMILES: CCC/C(=C\C1=C(OC)C(=O)c2ccccc2C1=O)C(=O)N(CC)CC [APX2009, [(2E)-2-[(3-methoxy-1,4-dioxo-1,4-dihydronaphthalen-2-yl)methylidene]-N,N-diethylpentanamide]]
- neuroprotection against platinum-induced toxicity (sensory neurons): neuroprotective against cisplatin and oxaliplatin-induced toxicity of sensory neurons
- IC50 (T24 cells): 8.5 µM
- STAT3 transcriptional activity (STAT3): significantly blocked

SMILES: CCCCCCCCC/C(=C\C1=C(C)C(=O)C(OC)=C(OC)C1=O)C(=O)O [APX3330]
- individuals with reduced number of SNV in treated eye [1]: 17/20
- reduction of number of SNV [1]: ~30%
- killing of multiple myeloma cells in combination with melphalan (multiple myeloma cells; combination with melphalan, 72 hours): synergistically enhance the killing of multiple myeloma cells
- killing of multiple myeloma cells in combination with methoxyamine (multiple myeloma cells; combination with methoxyamine): enhanced killing of multiple myeloma cells
- inhibition at 10 µM ([2]; Mus musculus, Endothelial cell, 10 μM, basal media): 57%
- inhibition at 25 µM ([2]; Mus musculus, Endothelial cell, 25 μM, basal media): 93%
- retinal endothelial cell proliferation ([2]; about 10-100 μM, with or without bFGF): decreased retinal endothelial cell proliferation
- tube formation, combination of AVASTIN and APX3330 (endothelial cells; combination use with AVASTIN): synergistically more effective than either alone
- formation of blood-vessel-like tubules (endothelial cells; dose dependent): prevented formation of blood-vessel-like tubules
